{"source": "ChEMBL document CHEMBL1201862", "about": "“PubChem BioAssay data set” (2004)", "key": {"[1]": {"test": "inhibitors of intracellular T. cruzi replication, confirmation, NIH3T3 host cells, beta-gal luminescence (AID 2044);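 further: luminescent beta-galactosidase reporter signal from transgenic T. cruzi replicating inside host cells; inhibitors lower the luminescence signal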", "assay_type": "functional, cell-based"}, "[2]": {"test": "Luminescence Cell-Based Dose Retest to Confirm Inhibitors of Cancer Stem Cells. [Related pubchem assays (depositor defined):AID2717, AID2721]", "assay_type": "functional", "settings": "Homo sapiens"}, "[3]": {"test": "cytotoxicity toward NIH3T3 fibroblasts, dose response, counter-screen, cell-based, ATP luminescence, mouse fibroblasts (AID 2010);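 further: cells exposed to compound for about 90 hours before reading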", "assay_type": "functional"}, "[4]": {"test": "C. albicans growth with fluconazole, confirmation, fluorescence, retest (AID 2467)", "assay_type": "functional, cell-based"}, "[5]": {"test": "NIH-3T3 fibroblast cytotoxicity, dose response, cytotoxicity control, cell-based, fluorescence, Alamar Blue, secondary assay (AID 2327);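 further: NIH-3T3 mouse fibroblasts cultured with fluconazole at 8 µg/mL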", "assay_type": "functional"}, "[6]": {"target": "T1, Corticotropin-releasing factor receptor 2/Corticotropin-releasing factor-binding protein (Homo sapiens, UniProt P24387+Q13324)", "T1 sequence (Q13324 whole entry)": "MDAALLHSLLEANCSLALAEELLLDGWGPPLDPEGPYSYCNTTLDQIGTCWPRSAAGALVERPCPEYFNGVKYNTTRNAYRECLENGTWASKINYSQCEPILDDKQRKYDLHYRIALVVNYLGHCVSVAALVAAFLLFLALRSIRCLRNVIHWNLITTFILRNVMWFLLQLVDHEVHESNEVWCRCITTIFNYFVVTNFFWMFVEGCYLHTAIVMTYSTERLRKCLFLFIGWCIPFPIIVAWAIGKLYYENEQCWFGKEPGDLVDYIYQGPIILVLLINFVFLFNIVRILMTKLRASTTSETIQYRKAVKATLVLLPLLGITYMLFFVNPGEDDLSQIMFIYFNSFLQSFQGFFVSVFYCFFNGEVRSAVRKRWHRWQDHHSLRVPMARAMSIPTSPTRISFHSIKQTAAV", "T1 sequence (P24387 whole entry)": "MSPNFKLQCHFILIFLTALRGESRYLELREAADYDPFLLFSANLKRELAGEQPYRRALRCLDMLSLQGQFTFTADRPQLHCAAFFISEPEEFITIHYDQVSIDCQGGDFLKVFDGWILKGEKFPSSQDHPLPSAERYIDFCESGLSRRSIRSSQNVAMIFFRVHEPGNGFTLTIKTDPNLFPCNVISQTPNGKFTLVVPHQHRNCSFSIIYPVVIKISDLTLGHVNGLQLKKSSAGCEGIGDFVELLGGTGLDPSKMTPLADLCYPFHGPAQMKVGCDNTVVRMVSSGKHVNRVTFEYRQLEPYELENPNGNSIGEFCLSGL", "test": "activators of CRF receptor 2 with binding protein – uHTS hits, confirmation (AID 602473)", "assay_type": "functional", "settings": "read-out: EC50_Mean"}, "[7]": {"test": "Luminescence Cell-Based Dose Confirmation HTS to Identify Inhibitors of Platelet Dense Granule Release. [Related pubchem assays: 1663 (Primary HTS), 1678 (Summary of Project)]", "assay_type": "functional"}, "[8]": {"target": "Luciferin 4-monooxygenase (Photinus pyralis, UniProt P08659)", "sequence (P08659 whole entry)": "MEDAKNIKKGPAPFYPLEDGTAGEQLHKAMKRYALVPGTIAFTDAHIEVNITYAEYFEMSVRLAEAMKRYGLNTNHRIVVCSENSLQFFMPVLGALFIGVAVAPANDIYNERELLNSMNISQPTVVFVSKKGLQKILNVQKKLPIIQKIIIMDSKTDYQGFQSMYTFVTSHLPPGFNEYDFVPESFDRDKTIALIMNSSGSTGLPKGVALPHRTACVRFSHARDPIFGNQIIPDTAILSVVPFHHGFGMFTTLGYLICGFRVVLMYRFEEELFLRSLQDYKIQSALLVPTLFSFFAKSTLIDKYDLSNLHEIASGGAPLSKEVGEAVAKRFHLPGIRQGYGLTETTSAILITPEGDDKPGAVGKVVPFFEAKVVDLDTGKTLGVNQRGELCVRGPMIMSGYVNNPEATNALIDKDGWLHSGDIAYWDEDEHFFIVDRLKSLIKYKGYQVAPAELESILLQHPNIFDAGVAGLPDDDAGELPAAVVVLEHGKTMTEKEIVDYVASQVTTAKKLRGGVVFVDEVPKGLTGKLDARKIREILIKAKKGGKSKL", "test": "firefly luciferase enzyme inhibitors, dose response, biochemical, luminescence (AID 1891)"}, "[9]": {"target": "T2, Replicative DNA helicase DnaB (Mycobacterium tuberculosis, UniProt P9WMR3)", "T2 sequence (P9WMR3 whole entry)": "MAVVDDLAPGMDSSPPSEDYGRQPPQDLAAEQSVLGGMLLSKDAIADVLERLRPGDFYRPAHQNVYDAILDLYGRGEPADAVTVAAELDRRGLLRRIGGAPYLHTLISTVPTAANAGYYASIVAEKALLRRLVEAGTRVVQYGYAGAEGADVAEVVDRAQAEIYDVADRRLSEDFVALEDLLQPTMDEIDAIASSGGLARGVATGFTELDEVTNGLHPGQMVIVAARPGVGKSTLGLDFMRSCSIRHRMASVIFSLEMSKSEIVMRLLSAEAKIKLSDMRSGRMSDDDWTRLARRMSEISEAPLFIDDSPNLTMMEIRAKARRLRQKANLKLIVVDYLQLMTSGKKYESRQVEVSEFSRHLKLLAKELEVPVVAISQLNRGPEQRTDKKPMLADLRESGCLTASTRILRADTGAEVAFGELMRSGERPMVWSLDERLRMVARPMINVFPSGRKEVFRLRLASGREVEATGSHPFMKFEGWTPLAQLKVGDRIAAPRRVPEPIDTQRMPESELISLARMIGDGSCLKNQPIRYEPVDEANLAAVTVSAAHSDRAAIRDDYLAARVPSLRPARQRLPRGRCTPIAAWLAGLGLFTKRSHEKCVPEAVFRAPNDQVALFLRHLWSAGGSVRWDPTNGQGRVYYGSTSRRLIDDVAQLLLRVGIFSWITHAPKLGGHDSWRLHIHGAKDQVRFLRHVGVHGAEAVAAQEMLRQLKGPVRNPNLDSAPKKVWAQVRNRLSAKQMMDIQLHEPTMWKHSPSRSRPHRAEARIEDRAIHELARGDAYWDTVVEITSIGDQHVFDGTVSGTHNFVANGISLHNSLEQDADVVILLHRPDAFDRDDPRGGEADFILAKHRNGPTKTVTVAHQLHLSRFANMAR", "test": "DnaB intein splicing inhibitors, dose response, biochemical, cell-free fluorescence (AID 449749)", "assay_type": "functional"}, "[10]": {"target": "T3, Protein RecA (Mycobacterium tuberculosis, UniProt P9WHJ3)", "T3 sequence (P9WHJ3 whole entry)": "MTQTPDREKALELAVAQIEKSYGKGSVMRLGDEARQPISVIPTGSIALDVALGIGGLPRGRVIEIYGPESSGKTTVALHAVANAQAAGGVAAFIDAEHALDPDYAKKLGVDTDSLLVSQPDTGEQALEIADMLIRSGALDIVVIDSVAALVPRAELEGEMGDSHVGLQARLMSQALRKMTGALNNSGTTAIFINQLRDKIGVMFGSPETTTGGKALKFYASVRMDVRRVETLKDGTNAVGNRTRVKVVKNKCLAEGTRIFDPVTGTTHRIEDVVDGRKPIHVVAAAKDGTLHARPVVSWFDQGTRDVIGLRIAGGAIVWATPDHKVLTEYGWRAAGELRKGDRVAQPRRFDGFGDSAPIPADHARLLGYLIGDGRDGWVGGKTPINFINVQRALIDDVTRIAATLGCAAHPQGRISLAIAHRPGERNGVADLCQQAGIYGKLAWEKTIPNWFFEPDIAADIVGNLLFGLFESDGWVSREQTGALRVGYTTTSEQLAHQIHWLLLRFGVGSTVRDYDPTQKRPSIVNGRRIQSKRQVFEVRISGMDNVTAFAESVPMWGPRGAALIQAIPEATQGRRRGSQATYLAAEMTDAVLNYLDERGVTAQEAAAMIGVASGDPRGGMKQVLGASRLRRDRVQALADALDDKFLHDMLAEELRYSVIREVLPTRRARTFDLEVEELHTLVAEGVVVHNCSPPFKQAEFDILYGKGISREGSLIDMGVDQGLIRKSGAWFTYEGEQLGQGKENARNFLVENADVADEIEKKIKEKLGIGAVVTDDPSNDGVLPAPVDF", "test": "Fluorescence Cell-Free Homogeneous Dose Retest to Identify Inhibitors of RecA-Intein Splicing Activity. [Related pubchem assays (depositor defined):AID2097, AID2223, AID489010, AID492950]", "assay_type": "functional"}, "[11]": {"test": "cells", "assay_type": "functional, cell-based"}, "[12]": {"test": "cells", "assay_type": "functional, cell-based", "remark": "listed apart in the source"}, "[13]": {"test": "HEp-2 cell cytotoxicity, dose response, cytotoxicity control for RSV inhibitor project, HTS (AID 2410)", "assay_type": "functional", "settings": "human respiratory syncytial virus"}}, "note": "Activity calls are given as the source filed them. For most assays here, no stated cut-off is given here; in the data, actives have a measured EC50 and inactives only a lower limit.", "data": [{"smiles": "COCCCn1c(SCc2cccc(C(F)(F)F)c2)nc2cc(OC)c(OC)cc2c1=N", "values": [{"measurement": "EC50", "setting": "[1]", "value": "1.92 µM (active)"}, {"measurement": "AC50", "setting": "[2]", "value": "4.12 µM (active)"}, {"measurement": "EC50", "setting": "[3]", "value": "> 60 µM (not active)"}]}, {"smiles": "COc1cc(OC)cc(C(=O)NNC(=O)c2cc3ccccc3cc2O)c1", "values": [{"measurement": "EC50", "setting": "[4]", "value": "> 38 µM (not active)"}, {"measurement": "EC50", "setting": "[5]", "value": "> 160 µM (inactive)"}]}, {"smiles": "Cc1ccc(-n2c(-c3cccs3)nc3ccccc3c2=O)cc1", "values": [{"measurement": "AC50", "setting": "[2]", "value": "2 µM (active)"}]}, {"smiles": "CCOc1ccc(C(=O)Nc2ccc(Cc3ccncc3)cc2)cc1Br", "values": [{"measurement": "EC50", "setting": "[4]", "value": "> 38 µM (not active)"}, {"measurement": "EC50", "setting": "[1]", "value": "1.68 µM (active)"}, {"measurement": "EC50", "setting": "[3]", "value": "> 60 µM (not active)"}, {"measurement": "EC50", "setting": "[5]", "value": "> 150 µM (inactive)"}]}, {"smiles": "O=C(Nc1ccc(-n2cnnn2)cc1)c1cn2ccccc2n1", "values": [{"measurement": "EC50", "setting": "[6]", "value": "> 53 µM (inactive)"}]}, {"smiles": "Cc1cccc(NC(=O)CC2SC(=O)N(c3ccccc3)C2=O)c1", "note": "(stereo not drawn)", "values": [{"measurement": "EC50", "setting": "[7]", "value": "> 112 µM (not active)"}, {"measurement": "EC50", "setting": "[8]", "value": "> 112 µM (not active)"}]}, {"smiles": "COCCN(C(=O)CC(C)(C)C)c1nnc(-c2cccnc2)s1", "values": [{"measurement": "EC50", "setting": "[7]", "value": "> 112 µM (not active)"}, {"measurement": "EC50", "setting": "[8]", "value": "> 112 µM (not active)"}]}, {"smiles": "Cc1cc(NC(=O)c2ccc3c(c2)OCO3)ccc1NC(=O)c1ccco1", "values": [{"measurement": "EC50", "setting": "[7]", "value": "12.7 µM (active)"}, {"measurement": "EC50", "setting": "[8]", "value": "4.06 µM (active)"}]}, {"smiles": "N#CC1(NC(=O)COC(=O)c2cc(O)c3ccccc3c2O)CCCCC1", "values": [{"measurement": "AC50", "setting": "[2]", "value": "6.49 µM (active)"}, {"measurement": "AC50", "setting": "[9]", "value": "4.37 µM (active)"}, {"measurement": "EC50", "setting": "[10]", "value": "4.28 µM (active)"}]}, {"smiles": "COc1cccc(CNC(=O)N[C@@H](CC(C)C)C(=O)O)c1", "values": [{"measurement": "EC50", "setting": "[7]", "value": "> 112 µM (not active)"}, {"measurement": "EC50", "setting": "[8]", "value": "> 112 µM (not active)"}]}, {"smiles": "O=C(/C=C/c1ccc2c(c1)OCO2)Nc1nc(-c2ccccc2)cs1", "values": [{"measurement": "AC50", "setting": "[2]", "value": "0.943 µM (active)"}]}, {"smiles": "CCCN(CCC)C(C)C(=O)NCC1(c2ccccc2)CCCC1", "note": "(stereo not drawn)", "values": [{"measurement": "EC50", "setting": "[11]", "value": "> 350 µM (not active)"}, {"measurement": "EC50", "setting": "[12]", "value": "45.6 µM (active)"}]}, {"smiles": "c1ccc(Cn2nnc3c(N4CCC5(CC4)OCCO5)ncnc32)cc1", "values": [{"measurement": "CC50", "setting": "[13]", "value": "29.6 µM (active)"}]}, {"smiles": "N=C(Cc1ccc(Cl)cc1Cl)NOC(=O)c1ccccc1", "values": [{"measurement": "EC50", "setting": "[4]", "value": "> 38 µM (not active)"}, {"measurement": "EC50", "setting": "[5]", "value": "> 160 µM (inactive)"}]}, {"smiles": "CCCCn1c(N)c(N(CC)C(=O)c2cc(OC)cc(OC)c2)c(=O)[nH]c1=O", "values": [{"measurement": "EC50", "setting": "[11]", "value": "> 350 µM (not active)"}, {"measurement": "EC50", "setting": "[12]", "value": "> 350 µM (not active)"}]}, {"smiles": "Cc1ccc(S(=O)(=O)N2[C@@H](c3ccc(C(C)(C)C)cc3)C(C(=O)O)=CC[C@H]2c2cccc(Cl)c2)cc1", "values": [{"measurement": "AC50", "setting": "[2]", "value": "2.86 µM (active)"}]}, {"smiles": "COc1cccc(C(=O)NCc2ccc3c(c2)cc(C)n3C)c1", "values": [{"measurement": "EC50", "setting": "[7]", "value": "21.3 µM (active)"}, {"measurement": "EC50", "setting": "[8]", "value": "> 112 µM (not active)"}]}, {"smiles": "COCCNC(=O)C(c1ccc(C)o1)N(CCOC)C(=O)Cn1nnc2ccccc21", "note": "(stereo not drawn)", "values": [{"measurement": "EC50", "setting": "[4]", "value": "> 38 µM (not active)"}, {"measurement": "EC50", "setting": "[5]", "value": "> 150 µM (inactive)"}]}, {"smiles": "Cc1cccc(C)c1NC(=O)CN(C)C(=O)Cn1c(=O)cnc2ccccc21", "values": [{"measurement": "EC50", "setting": "[7]", "value": "> 112 µM (not active)"}, {"measurement": "EC50", "setting": "[8]", "value": "> 112 µM (not active)"}]}, {"smiles": "CCc1cccc2c(-c3cs/c(=N\\C)n3C)c[nH]c12", "values": [{"measurement": "CC50", "setting": "[13]", "value": "41.7 µM (active)"}]}]}
